In patent publication US20080051463A1, “ANTHRACENE COMPOUNDS AND THEIR USE FOR TREATING BENIGN AND MALIGNANT TUMOR DISORDERS” (AETERNA ZENTARIS GmbH, priority 2006, published 2008):
Values after ≈ are worked out from the molar mass of the structure shown. Values joined by “and” are separate entries in the source; they are usually repeats but may differ in a detail not shown here. Equal entries are not always repeated.

Columns and labels:
[1] = test system: bovine tubulin; experiment: Inhibition of the polymerization of bovine tubulin (in vitro); type: biochemical
From the text: In this test, tubulin purified by polymerization and depolymerization cycles is used, which is polymerized by addition of GTP and heating.
Table 1 states the %-inhibition values and Table 2 states the EC50 values of polymerization inhibition of tubulin with 30% associated proteins (MAPs).

[2] = target: T1, Eg513-437 (Homo sapiens, UniProt P52732); experiment: Inhibition of kinesin Eg5 activity, recombinant Eg513-437; type: biochemical; conditions: recombinant Eg513-437 (Table 4)
T1 construct: read as Eg5 residues 13-437
T1 sequence (P52732 1-1056): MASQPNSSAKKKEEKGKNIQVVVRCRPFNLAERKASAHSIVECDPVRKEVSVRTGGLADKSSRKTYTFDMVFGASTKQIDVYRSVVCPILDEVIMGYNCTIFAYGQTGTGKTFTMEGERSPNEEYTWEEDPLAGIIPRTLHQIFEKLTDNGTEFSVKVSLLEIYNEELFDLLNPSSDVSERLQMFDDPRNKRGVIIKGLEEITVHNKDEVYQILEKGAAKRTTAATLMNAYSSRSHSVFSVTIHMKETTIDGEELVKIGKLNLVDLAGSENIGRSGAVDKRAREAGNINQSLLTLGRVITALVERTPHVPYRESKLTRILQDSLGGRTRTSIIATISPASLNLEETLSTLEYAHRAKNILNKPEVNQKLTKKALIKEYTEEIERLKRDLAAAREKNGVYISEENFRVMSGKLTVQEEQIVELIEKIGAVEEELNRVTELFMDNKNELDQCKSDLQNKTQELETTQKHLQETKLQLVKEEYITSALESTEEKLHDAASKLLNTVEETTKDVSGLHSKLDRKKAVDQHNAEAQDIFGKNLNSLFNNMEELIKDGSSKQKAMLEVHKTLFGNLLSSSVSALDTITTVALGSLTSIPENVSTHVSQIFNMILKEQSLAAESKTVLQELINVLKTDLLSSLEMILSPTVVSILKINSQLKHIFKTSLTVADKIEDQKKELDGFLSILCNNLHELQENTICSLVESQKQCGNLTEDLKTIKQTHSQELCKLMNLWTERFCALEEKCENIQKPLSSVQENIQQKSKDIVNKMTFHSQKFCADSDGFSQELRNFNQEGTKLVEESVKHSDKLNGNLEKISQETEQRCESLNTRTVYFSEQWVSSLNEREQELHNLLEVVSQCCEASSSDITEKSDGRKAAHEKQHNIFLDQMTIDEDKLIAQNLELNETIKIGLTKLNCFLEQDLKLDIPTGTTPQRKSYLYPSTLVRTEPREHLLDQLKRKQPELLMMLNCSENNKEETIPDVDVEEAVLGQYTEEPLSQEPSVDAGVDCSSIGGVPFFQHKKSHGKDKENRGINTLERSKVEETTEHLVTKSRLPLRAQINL
From the text: (§1) In an in vitro test, compound 1 was examined for inhibition of Eg5 activity [Kodama, T. et al. J. Biochem. 99: 1465-1472 (1986)].
(§2) Here, the recombinant kinesins Eg513-437 (Table 3) and Eg51-406 (Table 4) were used.
(§3) Tables 4 and 5 state the EC50 values of Eg5 inhibition for the compound 1 according to the invention.

[3] = target: T2, Eg51-406 (Homo sapiens, UniProt P52732); experiment: Inhibition of kinesin Eg5 activity, recombinant Eg51-406; type: biochemical; conditions: recombinant Eg51-406 (Table 5)
T2 construct: read as Eg5 residues 1-406
T2 sequence (P52732 1-1056): T1 sequence (P52732 1-1056)
From the text: as §1, §2, §3

[4] = test system: human cervical carcinoma cell line KB/HeLa; experiment: Proliferation test (cellular dehydrogenase activity), KB/HeLa; type: cell-based
From the text: (§4) The antiproliferative activity of the compounds 1, 2, 4, 6, 7, 9, 10, 11, 12 and 13 according to the invention was investigated in a proliferation test performed on established tumor cell lines (D. A. Scuderio et al. Cancer Res. 1988, 48: 4827-4833).
(§5) The test used determines the cellular dehydrogenase activity and makes it possible to determine cell viability and determine cell number indirectly.
(§6) The cell lines used are the human cervical carcinoma cell line KB/HeLa (ATCC CCL17), the ovarian adenocarcinoma cell line SKOV-3 (ATCC HTB77), the human glioblastoma cell line SF-268 (NCI-503138) and the lung carcinoma cell line NCI-H460 (NCI-503473). In addition, an RKOp27 cell system was used for investigating the cell cycle-specific effect of the substance (M. Schmidt et al. Oncogene 2000, 19(20): 2423-9).

[5] = test system: lung carcinoma cell line NCI-H460; experiment: Proliferation test (cellular dehydrogenase activity), NCI-H460; type: cell-based; conditions: Homo sapiens
From the text: as §4, §5, §6

[6] = test system: human glioblastoma cell line SF-268; experiment: Proliferation test (cellular dehydrogenase activity), SF-268; type: cell-based
From the text: as §4, §5, §6

[7] = test system: ovarian adenocarcinoma cell line SKOV-3; experiment: Proliferation test (cellular dehydrogenase activity), SK-OV-3; type: cell-based; conditions: Homo sapiens
From the text: as §4, §5, §6

[8] = test system: RKOp27 human colon carcinoma cells; experiment: Proliferation test, RKOp27 cell system without p27kiP1 expression; type: cell-based; conditions: RKOp27 without expression of p27kiP1
From the text: as §4, §5, §6
RKO is a human colon carcinoma line in which expression of the cell cycle inhibitor p27^kiP1 can be induced using the ecdysone expression system and lead to cell cycle arrest specifically in […].
By contrast, cell cycle-specific substances, such as, for example, tubulin inhibitors, are only cytotoxic when cells are not arrested and the cell cycle is passed through.

## O=C(C=C1c2ccccc2C(=O)c2ccccc21)c1ccc(O)c(O)c1 [Compound 1, 10-[2-(3,4-dihydroxy-phenyl)-2-oxo-ethylidene]-10H-anthracen-9-one]
[1]; 10 μg/ml, tubulin with 30% associated proteins (MAPs), repeat values
  Inhibition at 10 μg/ml [%]: 98.2% and 83.0% and 86.9% and 79.7%
[1]; bovine tubulin with 30% associated proteins (MAPs)
  EC50 of polymerization inhibition of tubulin: 7.15 µg/mL and 8.02 µg/mL
[2]
  EC50: 6.92 µM and 7.24 µM and 5.46 µM and 5.9 µM
[3]
  EC50: 37.1 µM
[4]
  EC50: 0.091 µg/mL (≈ 0.266 µM)
[5]
  EC50: 0.146 µg/mL (≈ 0.426 µM)
[6]
  EC50: 0.076 µg/mL (≈ 0.222 µM)
[7]
  EC50: 0.053 µg/mL (≈ 0.155 µM)
[8]
  EC50: 0.083 µg/mL (≈ 0.242 µM)
